The source of these data is patent US8222274B2, “Pyrrole derivative or salt thereof” (Astellas Pharma Inc., priority 2006, dated 2012).

The target in one assay is T1, human 5-HT2B receptor (Homo sapiens, UniProt P41595).
T1 construct: expressed in transfected cells; host or cells: HEK293-EBNA cells (membrane preparation)
As to the kind of experiment: 5-HT2B receptor binding test. Particulars: human 5-HT2B receptor expressing HEK293-EBNA cell membrane, [3H] Mesulergine. Here is the method: Test Method (1) 5-HT2B Receptor Binding Test
(i) Preparation of Membrane Sample
(§1) Cultured human 5-HT2B receptor expressing HEK293-EBNA cells were washed with a phosphate buffer (PBS)(−). The cells were peeled off with a scraper in the presence of PBS(−), and the cells were recovered by centrifugation (1,000 rpm, 10 minutes, 4° C.). In the presence of 5 mM tris-hydrochloric acid (Tris-HCl) (pH 7.4) buffer, homogenized using a homogenizer (registered trademark: Polytron (PTA 10-TS)), and centrifugation-treated (40,000×g, 10 minutes, 4° C.). In the presence of 50 mM Tris-HCl (pH 7.4) buffer, suspended using Glass-Teflon (registered trademark) homogenizer. By carrying out centrifugation treatment (40,000×g, 10 minutes, 4° C.), suspended in 50 mM Tris-HCl (pH 7.4) and stored at −80° C.
(§2) (ii) Receptor Binding Test
A total volume of 500 μl containing 50 mM Tris-HCl, a 4 mM CaCl2 (pH 7.4) buffer, a human 5-HT2B receptor expressing HEK293-EBNA cell membrane preparation and a radio-ligand [^3H] Mesulergine (3.1 TBq/mmol) was incubated at 25° C. for 1 hour. The compound was dissolved in 100% dimethyl sulfoxide (DMSO) and diluted to respective concentrations. Binding quantity in the presence of 1 μM ritanserin was regarded as the nonspecific binding, and a result of subtracting the nonspecific binding quantity from the total binding quantity was regarded as the specific binding quantity. After adding 4 ml of 50 mM Tris-HCl buffer (pH 7.4) and filtering under a reduced pressure using a GF/B glass filter, the filter was washed (4 ml×3) with the same buffer. By soaking the glass filter in 5 ml of a liquid scintillator (trade name: Aquasol-2), the radioactivity quantity was measured using a liquid scintillation counter. […] Ex represents example compound number which is described later.

Another assay addresses T2, human 5-HT7 receptor (Homo sapiens, UniProt P34969).
T2 construct: expressed in transfected cells; host or cells: CHO cells (membrane preparation)
In words: 5-HT7 receptor binding test. The conditions noted are these: human 5-HT7 receptor expressing CHO cell membrane, [3H] 5-HT. Here is the method: Test Method (2) 5-HT7 Receptor Binding Test (i) Preparation of Membrane Sample
as §1, with “5-HT7” for “5-HT2B”, “CHO” for “HEK293-EBNA”, “PBS(−).” for “a phosphate buffer (PBS)(−).”, “Tris-HCl” for “tris-hydrochloric acid (Tris-HCl)”
as §2
A total volume of 500 μl containing 50 mM Tris-HCl, a 4 mM CaCl2 (pH 7.4) buffer, a human 5-HT7 receptor expressing CHO cell membrane preparation and a radio-ligand [^3H] 5-HT (3.40 TBq/mmol) was incubated at 25° C. for 1 hour. The compound was dissolved in 100% DMSO and diluted to respective concentrations. Binding quantity in the presence of 10 μM metergoline was regarded as the nonspecific binding, and a result of subtracting the nonspecific binding quantity from the total binding quantity was regarded as the specific binding quantity. After adding 4 ml of 50 mM Tris-HCl buffer (pH 7.4) and filtering under a reduced pressure using a GF/B glass filter, the filter was washed (4 ml×3) with the same buffer. By soaking the glass filter in 5 ml of a liquid scintillator (trade name: Aquasol-2), the radioactivity quantity was measured using a liquid scintillation counter.

Another assay deals with male Wistar rats. In words: Defecation suppressing effect at the time of restraint stress loading (rat restraint stress defecation model). Type of assay: in vivo. Particulars: for suppressing action on defecation / defecation-suppressing action: rat restraint stress, faces excreted during 1 hour after stress loading; for suppressing action on defecation: starting from a dose of 1 mg/kg (p.o.); for number of faces excreted, difference in comparison with the non-administration group: rat restraint stress, 1, 3 or 10 mg/kg administration group, N=10; for defecation-suppressing action: even at a dose of 10 mg/kg p.o. On the procedure:
Test method (4) Defecation Suppressing Effect at the Time of Restraint Stress Loading
The IBS-treating effect of the compound (I) of the present invention was evaluated using a test method in which the amount of excreted faces is measured by loading a restraint stress on rats (see “The Journal of Pharmacology Experimental Therapeutics”, (USA), 1992, vol. 261, p. 297-303).
The agent to be tested was administered to male Wistar rats (body weight 250 to 320 g, 10 animals for each group), and a restraint stress was loaded 30 minutes thereafter. A restraint cage (trade name: KN-468, 265 mm in width×95 mm in length×200 mm in height, Natsume Seisakusho, Tokyo) was used for the restraint stress loading, and the number of faces excreted during 1 hour after the stress loading was counted.

The next assay deals with 5-HT2B receptor. Particulars: versus 5-HT1A, 5-HT1B, 5-HT2A, 5-HT2C, 5-HT3, 5-HT6, 5-HT7, α1, M1, D2 and the like; cited from earlier work.

Where only a bound is given, the exact number is not on record here.

T2 sequence (P34969 whole entry): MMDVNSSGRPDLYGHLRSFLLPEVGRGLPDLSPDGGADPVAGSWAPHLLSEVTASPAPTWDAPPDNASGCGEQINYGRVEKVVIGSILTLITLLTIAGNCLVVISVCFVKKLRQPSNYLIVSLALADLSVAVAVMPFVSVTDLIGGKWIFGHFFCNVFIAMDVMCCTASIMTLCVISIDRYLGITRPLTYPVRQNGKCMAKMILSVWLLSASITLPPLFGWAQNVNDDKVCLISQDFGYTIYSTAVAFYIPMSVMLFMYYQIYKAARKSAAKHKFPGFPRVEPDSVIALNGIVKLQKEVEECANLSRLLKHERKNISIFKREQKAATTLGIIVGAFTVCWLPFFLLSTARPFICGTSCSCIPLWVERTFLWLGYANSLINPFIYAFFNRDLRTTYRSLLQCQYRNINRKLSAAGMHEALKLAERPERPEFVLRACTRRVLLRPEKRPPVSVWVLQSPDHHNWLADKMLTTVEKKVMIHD
T1 sequence (P41595 whole entry): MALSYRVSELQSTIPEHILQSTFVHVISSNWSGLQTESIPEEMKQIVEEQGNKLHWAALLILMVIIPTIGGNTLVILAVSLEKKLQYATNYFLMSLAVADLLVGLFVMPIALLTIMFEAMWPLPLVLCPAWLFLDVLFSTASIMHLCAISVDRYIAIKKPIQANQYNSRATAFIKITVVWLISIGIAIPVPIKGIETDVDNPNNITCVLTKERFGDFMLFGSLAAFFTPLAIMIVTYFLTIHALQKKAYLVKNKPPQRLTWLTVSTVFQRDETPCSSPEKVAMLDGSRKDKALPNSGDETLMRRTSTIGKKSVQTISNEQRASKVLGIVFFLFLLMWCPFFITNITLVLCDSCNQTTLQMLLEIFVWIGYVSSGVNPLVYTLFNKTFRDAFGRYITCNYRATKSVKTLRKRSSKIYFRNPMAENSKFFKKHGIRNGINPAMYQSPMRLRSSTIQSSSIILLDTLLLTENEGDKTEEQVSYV

Regarding `Cc1c(C(=O)NCCN(C)C)cc(C(C)(C)C)n1CCc1ccc(F)cc1` [Example 2, 5-tert-butyl-N-[2-(dimethylamino)ethyl]-1-[2-(4-fluorophenyl)ethyl]-2-methyl-1H-pyrrole-3-carboxamide], the inhibition constant (Ki) was 7.7 nM on human 5-HT2B receptor and 1.1 nM on human 5-HT7 receptor.

As to `Cc1c(C(=O)N=C(N)N)cc(C2CCCC2)n1CCc1ccc(F)cc1` [Example 52], the inhibition constant Ki worked out at 0.48 nM on human 5-HT2B receptor and 1.3 nM at human 5-HT7 receptor.

As to `Cc1c(C(=O)N=C(N)N)cc(-c2ccccc2)n1Cc1ccco1` [Example 98], the Ki on human 5-HT2B receptor turned out to be 9.6 nM; at human 5-HT7 receptor, 28 nM.

With `Cc1c(C(=O)N=C(N)N)c(C)n(CCc2ccc(F)cc2)c1C(C)(C)C` [Example 142], the figures for the Ki on human 5-HT2B receptor and on human 5-HT7 receptor were 3.7 nM and 1.5 nM, respectively.

For the compound `Cc1c(C(=O)N[C@H]2CCN(C)C2)cc(C(C)(C)C)n1CCc1ccc(F)cc1` [Example 153], the values for the inhibitory constant (Ki) at human 5-HT2B receptor and on human 5-HT7 receptor were 12 nM and 6.5 nM, respectively. For the same compound, in the assay with male Wistar rats, the “suppressing action on defecation” value is listed as “significant suppressing action”.

For the compound `Cc1c(C(=O)N[C@@H]2CCN(C)C2)cc(C(C)(C)C)n1CCc1ccc(F)cc1` [Example 154], the Ki at human 5-HT2B receptor came to 2.1 nM; on human 5-HT7 receptor it was 14 nM. In addition, in the assay with male Wistar rats, the “suppressing action on defecation” value was “significant suppressing action”.

As to `Cc1c(C(=O)NC[C@@H]2CCCN2C)cc(C(C)(C)C)n1CCc1ccc(F)cc1` [Example 161], the inhibition constant Ki was 8.4 nM on human 5-HT2B receptor and 5.3 nM on human 5-HT7 receptor. The “suppressing action on defecation” value in the assay with male Wistar rats is “significant suppressing action”.

On to `Cc1c(C(=O)NC[C@H]2CCCN2C)cc(C(C)(C)C)n1CCc1ccc(F)cc1` [Example 163], for which the Ki on human 5-HT2B receptor was 7.1 nM; at human 5-HT7 receptor, 4.1 nM.

For `Cc1c(C(=O)NCCN(C)C)cc(-c2ccsc2)n1CCc1ccc(F)cc1` [Example 187], the inhibitory constant (Ki) at human 5-HT2B receptor turned out to be 0.68 nM; on human 5-HT7 receptor, 11 nM.

With `Cc1c(C(=O)NCCN(C)C)cc(Cc2ccc(F)cc2)n1CCc1ccc(F)cc1` [Example 196], the Ki is 7.2 nM at human 5-HT2B receptor and 1.8 nM on human 5-HT7 receptor.

Turning to `Cc1c(C(=O)NCCN(C)C)cc(C(C)(C)C)n1OCc1ccc(F)cc1` [Example 211], the inhibitory constant (Ki) on human 5-HT2B receptor turned out to be 7.5 nM; at human 5-HT7 receptor, 3.1 nM.

In the case of `Cc1c(C(=O)N[C@@H]2CCN(C)C2)c(C)n(CCc2ccc(F)cc2)c1C(C)(C)C` [Example 217], the inhibition constant Ki at human 5-HT2B receptor was determined as 2.3 nM; at human 5-HT7 receptor, 8.2 nM.

In the case of `Cc1c(C(=O)N[C@H]2CCN(C)C2)c(C)n(CCc2ccc(F)cc2)c1C(C)(C)C` [Example 218], the values for the inhibition constant (Ki) at human 5-HT2B receptor and on human 5-HT7 receptor were 9.2 nM and 4.3 nM, respectively.

Turning to `CC(C)c1cc(-c2ccc(F)c3ccccc23)nc(N)n1` [RS-127445, 2-amino-4-(4-fluoronaphth-1-yl)-6-isopropylpyrimidine], in the assay with male Wistar rats, the “number of faces excreted, difference in comparison with the non-administration group” value is reported as “Significant difference was not found” and the defecation-suppressing action result is “did not show defecation-suppressing action”. The “5-HT2B receptor-selective by a factor” value in the assay on 5-HT2B receptor is on record as at least 1000 times.

As to `CC1CCN(CC[C@H]2CCCN2S(=O)(=O)c2cccc(O)c2)CC1` [SB-269970, (R)-3-(2-(2-(4-methylpiperidin-1-yl)ethyl)pyrrolidine-1-sulfonyl)phenol], in the assay with male Wistar rats, the “number of faces excreted, difference in comparison with the non-administration group” value is “Significant difference was not found” and the defecation-suppressing action result was “did not show the defecation-suppressing action”.

What is called Ki is a dissociation constant, usually derived from enzyme kinetics or from competition with a known ligand. Lower therefore signals tighter binding.
